For 17 compounds, EC50 results are on record in patent publication US8912227B1, “Bicyclic pyrrole derivatives useful as agonists of GPR120” (Janssen Pharmaceutica NV, priority 2014, dated 2014).

What all share (type): cell-based
Assay [1] deals with T1, short form of the GPR120 receptor (Homo sapiens, UniProt Q5NUL3).
T1 construct: host or cells: PathHunter CHO-K1 GPR120S β-Arrestin Cell Line
Briefly: Human GPR120 DiscoveRx PathHunter β-Arrestin assay, Procedure β-arrestin B. The settings on record: PathHunter CHO-K1 GPR120S β-Arrestin cell line, 5000 cells/well. An excerpt:
The binding of an agonist (medium/long chain fatty acids or small molecule agonists) to the G-protein-coupled receptor GPR120 activates phospholipase C, leading to release of intracellular Ca^+2 through the generation of inositol 1,4,5-trisphosphate (InsP3 or IP3). GPR120 activation can also trigger intracellular signaling via recruitment of β-Arrestin. In the present method, agonist-induced activation of the human GPR120 receptor is monitored through the use of PathHunter CHO-K1 GPR120 β-Arrestin Cell Line engineered by DiscoveRx, as detailed below. The cell lines are designed to co-express both the ProLink/Enzyme Donor (PK)-tagged GPCR and the Enzyme […] (EA)-tagged Beta-Arrestin fusion proteins. Upon GPR120 receptor stimulation/activation, the EA-tagged β-Arrestin portion is translocated to the tagged receptor, where the two enzyme fragments are brought within close proximity. Under these conditions, these fragments can interact and form an active Beta-gal enzyme complex through Enzyme Fragment Complementation (EFC). This active Beta-gal complex can enzymatically hydrolyse the substrate to produce a detectable light signal; therefore, activation as a function of agonist concentration can be expressed as an EC50 value to determine relative compound activities. This in vitro assay therefore serves to assess compound agonist activity of the GPR120.
In Procedure β-arrestin B the cells used were PathHunter CHO-K1 GPR120S β-Arrestin Cell Line, expressing the short form of the GPR120 receptor (Accession #NM_181745), with 5000 cells/well.
The selected CHO-K1 GPR120 β-Arrestin cells were cultured in Ham's F12 media supplemented with 10% fetal bovine serum (FBS), 1% Glutamine, 1×p/s, 800 μg/ml G418 and 300 μg/ml Hygromycin B (for selection). Cell stocks were maintained and grown in a sub-confluent state using standard cell culture procedures. The day before the experiment, the cells were harvested with non-enzymatic cell dissociation buffer and re-suspended in complete growth media at the desired concentration. A Corning 384-plate was then seeded with the proper number of cells in a volume of 25 μL, per well. The seeded plates were incubated overnight at 37° C.
On the day of the experiment, the Assay Buffer containing (a) HBSS with Ca^++ and Mg^++, (b) 20 mM HEPES, and (c) 0.1% BSA stabilizer (pH 7.4) was prepared. The growth medium was gently removed from the cell plates and 20 μL of Assay Buffer added to each well. The plate was then incubated at 37° C. for 60 mins. Test compounds were serially diluted in Assay Buffer to desired concentrations (more particularly, to one or more of the following μM concentrations: 25 μM, 12.5 μM, 6.25 μM, 3.125 μM, 1.562 μM, 0.781 μM, 0.391 μM, 0.195 μM, 0.098 μM, 0.049 μM, 0.024 μM, 0.012 μM). Five μl of compound dilution was then added to each well and the plate incubated at 37° C. for 90 mins. The detection reagents were prepared according to the manufacture's instruction. Twelve μL of the detection reagents were added to each well and the plate incubated at room temperature for 60 mins.
The plates were read on an EnVision instrument, using Protocol name: Luminescence, Plate type: 384 Costar, Measurement height: 3 mm, Measurement time: 1 s, Aperture: 384 Plate aperture. The % activity relative to the positive control was calculated using the following equation:
The % Activity values were plotted versus the concentration of test compound and fitted to a sigmoidal dose-response curve with a Hill slope=1 (fixed value) using nonlinear regression with GraphPad Prism 5.0 to calculate the EC50 values. The Fitting Equation was: Y=Bottom+(Top−Bottom)/(1+10^((LogEC50−X)*HillSlope)), where X is the log of the concentration and Y is the response.

Assay [2] concerns the target T2, Human GPR120 short form (Homo sapiens, UniProt Q5NUL3).
T2 construct: expressed in transfected cells
T2 sequence (Q5NUL3 1-361): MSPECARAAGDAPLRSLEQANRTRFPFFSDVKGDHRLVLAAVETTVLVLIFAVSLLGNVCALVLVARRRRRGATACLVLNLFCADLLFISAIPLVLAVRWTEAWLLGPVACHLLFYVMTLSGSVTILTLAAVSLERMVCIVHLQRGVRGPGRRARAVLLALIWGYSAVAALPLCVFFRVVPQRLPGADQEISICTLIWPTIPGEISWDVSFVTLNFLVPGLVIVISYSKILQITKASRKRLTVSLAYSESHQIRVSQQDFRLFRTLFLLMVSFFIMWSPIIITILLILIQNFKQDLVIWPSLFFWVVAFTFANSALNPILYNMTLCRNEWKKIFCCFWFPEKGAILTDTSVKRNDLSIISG
Briefly: Human GPR120 calcium flux assay, Procedure Calcium B. As to conditions: HEK-293 cells expressing human GPR120 short form, 4200 cells/well, FLIPR.

For assay [3], the target named is T3, long form of human GPR120 (Homo sapiens, UniProt Q5NUL3).
T3 construct: host or cells: PathHunter CHO-K1 GPR120 β-Arrestin Cell Line
Briefly: Human GPR120 DiscoveRx PathHunter β-Arrestin assay, Procedure β-arrestin A. As to conditions: PathHunter CHO-K1 GPR120 β-Arrestin cell line, 3000 cells per well. The gist of the method:
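PathHunter CHO-K1 β-arrestin cells (NM_181745 construct) were plated at 3000/well overnight, then held 60 min in HBSS/20 mM HEPES/0.1% BSA, pH 7.4. Compounds (dilution series 25–0.012 µM before addition) were added for 90 min at 37 °C, followed by 60 min RT luminescence detection. EC50 was fitted from % of positive control with Hill slope fixed at 1.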

In assay [4] the target is T2, Human GPR120 short form. The assay is described as follows: Human GPR120 calcium flux assay, Procedure Calcium A. The settings on record: HEK-293 cells expressing human GPR120 short form, 2500 cells/well, FLIPR. Summed up:
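HEK293 cells stably expressing the human GPR120 short splice variant (NM_001195755.1) were seeded at 2500 cells/well, serum-starved 1 h and loaded with Fluo-4 NW plus probenecid. Compounds (100–0.012 μM solutions, 0.2% final DMSO) were added, and FLIPR calcium flux was read for 300 s. EC50 came from a variable-slope fit (Hill <2) of Fmax−Fmin.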

T1 sequence (P32121 whole entry partner, one chain of several): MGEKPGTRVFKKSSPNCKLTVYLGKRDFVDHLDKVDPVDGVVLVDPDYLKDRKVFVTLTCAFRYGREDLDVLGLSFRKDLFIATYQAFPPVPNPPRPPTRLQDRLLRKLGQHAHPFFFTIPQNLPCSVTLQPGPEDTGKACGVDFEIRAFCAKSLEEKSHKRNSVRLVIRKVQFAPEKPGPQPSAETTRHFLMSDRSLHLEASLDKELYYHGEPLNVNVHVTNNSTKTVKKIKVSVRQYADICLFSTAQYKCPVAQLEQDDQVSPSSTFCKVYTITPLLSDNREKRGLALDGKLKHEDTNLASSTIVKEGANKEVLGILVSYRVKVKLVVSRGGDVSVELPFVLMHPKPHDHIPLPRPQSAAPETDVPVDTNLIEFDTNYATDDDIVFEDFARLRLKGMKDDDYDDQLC
T3 sequence (Q5NUL3 1-377 isoform Q5NUL3-1): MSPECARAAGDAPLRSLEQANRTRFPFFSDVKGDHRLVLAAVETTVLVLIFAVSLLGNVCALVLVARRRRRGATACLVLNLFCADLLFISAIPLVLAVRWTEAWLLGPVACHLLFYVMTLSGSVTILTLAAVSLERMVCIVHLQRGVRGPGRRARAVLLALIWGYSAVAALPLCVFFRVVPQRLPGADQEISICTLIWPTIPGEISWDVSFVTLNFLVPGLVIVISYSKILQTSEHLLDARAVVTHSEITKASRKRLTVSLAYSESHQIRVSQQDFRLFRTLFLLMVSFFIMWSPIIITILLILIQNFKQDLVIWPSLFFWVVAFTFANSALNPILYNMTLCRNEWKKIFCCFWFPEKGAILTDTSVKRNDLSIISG
T3 sequence (P32121 whole entry partner): as the sequence (P32121 whole entry partner, one chain of several) above

In the case of `O=C(O)CCc1cc(F)c(OCc2c(C(F)(F)F)ccn2-c2ccc(F)cc2F)c(F)c1` [Compound 75, 3-(4-{[1-(2,4-Difluorophenyl)-3-(trifluoromethyl)-1H-pyrrol-2-yl]methoxy}-3,5-difluorophenyl)propanoic acid], the EC50 is 0.577 µM in assay [1] and 0.156 µM in assay [2].
As for `CC(Cc1cc(F)c(OCc2c(C(F)(F)F)ccn2-c2ccc(Cl)cc2)c(F)c1)C(=O)O` (stereo not drawn) [Compound 59, 3-(4-[[1-(4-chlorophenyl)-3-(trifluoromethyl)-1H-pyrrol-2-yl]methoxy]-3,5-difluorophenyl)-2-methylpropanoic acid], the EC50 in assay [1] is 0.417 µM; in assay [2], 0.29 µM.
`CC(Cc1cc(F)c(OCc2c(C(F)(F)F)ccn2-c2ccc(F)cc2)c(F)c1)C(=O)O` (stereo not drawn) [Compound 65, 3-(3,5-difluoro-4-[[1-(4-fluorophenyl)-3-(trifluoromethyl)-1H-pyrrol-2-yl]methoxy]phenyl)-2-methylpropanoic acid]: the EC50 in assay [1] stood at 0.809 µM; in assay [2], 0.547 µM.
With `Cc1c(CCC(=O)O)ccc(OCc2c(C(F)(F)F)ccn2-c2ccc(F)cc2F)c1C` [Compound 77, 3-(4-{[1-(2,4-Difluorophenyl)-3-(trifluoromethyl)-1H-pyrrol-2-yl]methoxy}-2,3-dimethylphenyl)propanoic acid], the concentration giving a half-maximal response (EC50) stood at 1.06 µM in assay [1] and 0.266 µM in assay [2].
As for `Cc1ccc(-n2ccc(C(F)(F)F)c2COc2ccc(CCC(=O)O)c(C)c2C)c(F)c1` [Compound 73, 3-(4-{[1-(2-Fluoro-4-methylphenyl)-3-(trifluoromethyl)-1H-pyrrol-2-yl]methoxy}-2,3-dimethylphenyl)propanoic acid], the EC50 in assay [1] came out at 0.749 µM; in assay [2] it was 0.21 µM.
For `O=C(O)CCc1cc(F)c(OCc2c(C(F)(F)F)ccn2-c2ccc(Cl)cc2F)c(F)c1` [Compound 71, 3-(4-{[1-(4-Chloro-2-fluorophenyl)-3-(trifluoromethyl)-1H-pyrrol-2-yl]methoxy}-3,5-difluorophenyl)propanoic acid] the same measures were 0.624 µM and 0.179 µM.
Consider `CC(Cc1cc(F)c(OCc2c(C(F)(F)F)ccn2-c2ccc(Cl)c(F)c2)c(F)c1)C(=O)O` (stereo not drawn) [Compound 69, 3-(4-[[1-(4-chloro-3-fluorophenyl)-3-(trifluoromethyl)-1H-pyrrol-2-yl]methoxy]-3,5-difluorophenyl)-2-methylpropanoic acid], for which the results for the EC50 in assay [1] and in assay [2] were 0.63 µM and 0.488 µM, respectively.
For `O=C(O)CCc1cc(F)c(OCc2c(C(F)(F)F)ccn2-c2ccc(Cl)cc2)c(F)c1` [Compound 70, 3-(4-((1-(4-chlorophenyl)-3-(trifluoromethyl)-1H-pyrrol-2-yl)methoxy)-3,5-difluorophenyl)propanoic acid], the results for the EC50 in assay [1] and in assay [2] were 0.069 µM and 0.08 µM, respectively.
For the compound `CCc1ccc(-n2ccc(C(F)(F)F)c2COc2c(F)cc(CC(C)C(=O)O)cc2F)cc1` (stereo not drawn) [Compound 61, 3-(4-[[1-(4-ethylphenyl)-3-(trifluoromethyl)-1H-pyrrol-2-yl]methoxy]-3,5-difluorophenyl)-2-methylpropanoic acid], the figures for the concentration for a half-maximal effect (EC50) in assay [1] and in assay [2] were 0.639 µM and 0.236 µM, respectively.
The like results for `O=C(O)CCc1cc(F)c(OCc2c(C(F)(F)F)ccn2-c2ccc(Cl)c(F)c2)c(F)c1` [Compound 67, 3-(4-[[1-(4-chloro-3-fluorophenyl)-3-(trifluoromethyl)-1H-pyrrol-2-yl]methoxy]-3,5-difluorophenyl)propanoic acid] were, in that order, 0.206 µM and 0.368 µM.
As to `O=C(O)CCc1cc(F)c(OCc2c(C(F)(F)F)ccn2-c2ccc(F)c(F)c2)c(F)c1` [Compound 76, 3-(4-{[1-(3,4-Difluorophenyl)-3-(trifluoromethyl)-1H-pyrrol-2-yl]methoxy}-3,5-difluorophenyl)propanoic acid], the EC50 came out at 1.12 µM in assay [1] and 0.175 µM in assay [2].
For `Cc1ccc(-n2ccc(C(F)(F)F)c2COc2c(F)cc(CC(C)C(=O)O)cc2F)cc1` (stereo not drawn) [Compound 60, 3-(3,5-difluoro-4-[[1-(4-methylphenyl)-3-(trifluoromethyl)-1H-pyrrol-2-yl]methoxy]phenyl)-2-methylpropanoic acid] the same measures were 0.549 µM and 0.186 µM.
For the compound `Cc1ccc(-n2ccc(C(F)(F)F)c2COc2c(F)cc(CCC(=O)O)cc2F)c(F)c1` [Compound 72, 3-(3,5-Difluoro-4-{[1-(2-fluoro-4-methylphenyl)-3-(trifluoromethyl)-1H-pyrrol-2-yl]methoxy}phenyl)propanoic acid], the EC50 stood at 0.624 µM in assay [1] and 0.118 µM in assay [2].
Take `Cc1ccc(-n2ccc(C(F)(F)F)c2COc2ccc(CCC(=O)O)c(C)c2C)cc1F` [Compound 66, 3-(4-{[1-(3-Fluoro-4-methylphenyl)-3-(trifluoromethyl)-1H-pyrrol-2-yl]methoxy}-2,3-dimethylphenyl)propanoic acid]: the EC50 in assay [1] came out at 0.412 µM; in assay [2], 0.315 µM.
Take `Cc1ccc(-n2ccc(C(F)(F)F)c2COc2c(F)cc(CCC(=O)O)cc2F)cc1F` [Compound 62, 3-(3,5-difluoro-4-[[1-(3-fluoro-4-methylphenyl)-3-(trifluoromethyl)-1H-pyrrol-2-yl]methoxy]phenyl)propanoic acid]: the EC50 worked out at 0.096 µM in assay [1] and 0.262 µM in assay [2].
Consider `OCCCc1ccc(OCc2c(Cl)ccn2-c2ccc(Cl)cc2)c(F)c1F` [Compound 10, 3-(4-{[3-Chloro-1-(4-chlorophenyl)-1H-pyrrol-2-yl]methoxy}-2,3-difluorophenyl)propan-1-ol], for which the values for the EC50 in assay [3], in assay [4] and in assay [2] were 0.258 µM, 1.09 µM and 0.74 µM, respectively.
The like results for `OCCCc1ccc(OCc2c(C(F)(F)F)ccn2-c2ccc(Br)cc2)c(F)c1F` [Compound 21, 3-(4-{[1-(4-Bromophenyl)-3-(trifluoromethyl)-1H-pyrrol-2-yl]methoxy}-2,3-difluorophenyl)propan-1-ol] were, in that order, 0.087 µM, 0.709 µM and 0.282 µM.
